Experimental data from ChEMBL document CHEMBL1135659, “Sulfamide-based inhibitors for carboxypeptidase A. Novel type transition state analogue inhibitors for zinc proteases” (J Med Chem, 2002).

Target: T1, Carboxypeptidase A1 (Bos taurus, UniProt P00730)
T1 sequence (P00730 whole entry): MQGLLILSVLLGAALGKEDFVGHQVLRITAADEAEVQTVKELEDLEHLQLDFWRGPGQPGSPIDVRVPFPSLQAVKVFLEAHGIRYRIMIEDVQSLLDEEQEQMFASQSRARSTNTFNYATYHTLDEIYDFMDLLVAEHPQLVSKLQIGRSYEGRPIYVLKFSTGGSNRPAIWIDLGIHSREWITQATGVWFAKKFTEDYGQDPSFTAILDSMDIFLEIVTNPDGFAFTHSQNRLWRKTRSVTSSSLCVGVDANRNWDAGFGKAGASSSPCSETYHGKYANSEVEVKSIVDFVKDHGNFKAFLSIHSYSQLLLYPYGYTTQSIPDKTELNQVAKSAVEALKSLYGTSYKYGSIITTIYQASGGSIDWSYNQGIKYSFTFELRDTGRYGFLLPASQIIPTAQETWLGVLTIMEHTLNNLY
Assay: Inhibitory activity against Carboxypeptidase A

| Ki [µM] | Compound |
| --- | --- |
| 180 | O=C(O)[C@H](Cc1ccccc1)NS(=O)(=O)NCCc1ccccc1 |
| 610 | CC(C)NS(=O)(=O)N[C@@H](Cc1ccccc1)C(=O)O |
| 3500 | CN([C@@H](Cc1ccccc1)C(=O)O)S(N)(=O)=O |
| 2900 | NS(=O)(=O)NCC(Cc1ccccc1)C(=O)O (stereo not drawn) |
| 1400 | NS(=O)(=O)NC[C@@H](Cc1ccccc1)C(=O)O |
| 180 | CNS(=O)(=O)N[C@@H](Cc1ccccc1)C(=O)O |
| 35 | O=C(O)[C@H](Cc1ccccc1)NS(=O)(=O)NCc1ccccc1 |
| 470 | NS(=O)(=O)N[C@H](Cc1ccccc1)C(=O)O |
